Reference: US9340559B2, “Proteasome inhibitor delanzomib for use in the treatment of lupus” (Cephalon, Inc., priority 2011, dated 2016)

Experiments:
[1] = test system: MRL/lpr mice; assay: Luminex analysis of serum cytokines (IL-12p40/p70, IL-1β, TNFα), MRL/lpr mice; assay type: in vivo, mouse
Method: For the processing of serum samples for cytokine analysis, frozen plasma at −80° C. is thawed on ice, vortexed, and centrifuged for 10 minutes to remove debris and aggregates. A total of 25-50 μL of serum is used for Luminex® assays following the manufacturer's instructions. Ten different mouse cytokines are measured using the mouse cytokine 10-plex bead kit (Invitrogen, Carlsbad, Calif., no. LMC0001). Briefly, filter plates (Millipore, Billerica, Mass., no. MAIPSWU10), are pre-wet with 200 μL of wash solution (kit component) and 25 μL of beads are added per well. Serum samples are diluted and a total volume of 50 μL is added per well (ie, 25 μL of sample serum plus 25 μL of assay diluent as provided by the manufacturer). Plates with beads are incubated for 2 hours at room temperature (RT) on an orbital shaker in the dark. At the end of the incubation, plate(s) are washed twice in kit buffer, secondary biotinylated antibody is added at a 1:10 dilution (100 μL) in biotin diluent provided with the kit. Plates are incubated at RT for 1 hour in the dark then washed twice in kit buffer. Strepavidin in assay diluent is added at 100 μL per well, then incubated for 30 minutes at RT in the dark. The plates are washed 3 times then 100 μL of kit wash solution is added and agitated for 2-3 minutes at RT in the dark. Plates are run immediately following this incubation period on a Luminex xMAP 200 unit with data acquisition and analysis software (Invitrogen, San Diego, Calif., no. MAP0200). All bead washing is performed using a vacuum manifold unit (Pall, Ann Arbor, Mich. no. 5017). For all cytokine Luminex assays, values below the limit of detection set by the lowest point along the standard or set by the manufacturer are considered out of range and are not estimated, but assumed the lowest point along the standard curve for that particular assay.
Mice are tracked on an individual basis.
Vehicle alone is provided orally twice weekly (p.o.). Both proteasome inhibitors are suspended in the vehicle solution. […] In addition, urine proteinuria is determined for all animals.
Vehicle was 3% DMSO/10% Solutol/87% PBS.

[2] = test system: MRL/lpr mice; assay: Antinuclear antibody (ANA) ELISA (anti-chromatin, anti-Smith Ag, anti-dsDNA IgG), serum of MRL/lpr mice; assay type: in vivo, mouse
Source text: For all ANA ELISA assays, values below the limit of detection set by the lowest point along the standard or set by the manufacturer are considered out of range and are not estimated, but assumed the lowest point along the standard curve for that particular assay.

[3] = test system: NZM mice; assay: Survival, NZM lupus nephritis model, ip dosing (Example 2); assay type: in vivo, mouse
[4] = test system: NZM mice; assay: Urinalysis: total urine protein (proteinuria), NZM mice (Example 2); assay type: in vivo, mouse
[5] = test system: MRL/lpr mice; assay: Urinalysis: urine leukocytes (leukouria), Uristix, MRL/lpr mice; assay type: in vivo, mouse
Method: Urine samples are acid precipitated for total protein recovery and analysis. Samples for which enough urine remained are used for Uristix® leukouria analysis. Briefly, a standard protein solution is prepared from normal mouse sera and is used as a standard for mouse urinary protein assay by turbidity. Standard preparation is as follows: 0, 5, 10, 15, 20, 30, 40, and 50 μL of a 4 mg/mL mouse sera standard protein solution as provided in the kit are added in duplicate into two columns. PBS is added to individual wells to adjust the final volume to 50 μL. For urine sample preparation, urine samples are centrifuged at 9880×g for 3 minutes using a tabletop micro-centrifuge. Urine supernatant (1-50 μL) is added in duplicate. PBS is added to adjust the volume to 50 μL total. For the turbidity assay: 25 μL of 0.1 N HCl is added into blank columns and 250 μL of 3% sulfosalicyclic acid into the test columns. The microplate is incubated for 10 minutes at RT and plates are read using an ELISA reader with single beam at 450 nm. For the Uristix® strip assay, strips are laid out and labeled. Twenty microliters of urine are placed onto each test strip square and incubated for at least 30 seconds before the result is recorded. For all total urine analysis plate-based assays, values below the limit of detection set by the lowest point along the standard or set by the manufacturer are considered out of range and are not estimated, but assumed the lowest point along the standard curve for that particular assay.

[6] = test system: MRL/lpr mice; assay: Spleen plasma cells by flow cytometry, MRL/lpr mice
[7] = test system: NZM mice; assay: Serum C3 complement ELISA, NZM mice (Example 2)

CC(C)C[C@H](NC(=O)[C@@H](NC(=O)c1cccc(-c2ccccc2)n1)[C@@H](C)O)B(O)O [COMPOUND A, [(1R)-1-[[(2S,3R)-3-hydroxy-2-[6-phenyl-pyridine-2-carbonyl)amino]-1-oxobutyl]amino]-3-methylbutylboronic acid]
serum IL-1β by EOS ([1]; 3 mg/kg twice weekly, vehicle 16.8 pg/mL): 5.7 pg/mL
Cytokine AUC serum IL-1β, percent change vs vehicle ([1]; G1: 3 mg/kg iv, 1× wk): −56%
Cytokine AUC serum IL-12, percent change vs vehicle ([1]; G1: 3 mg/kg iv, 1× wk): −48%
Cytokine AUC serum TNFα, percent change vs vehicle ([1]; G1: 3 mg/kg iv, 1× wk): −62%
Cytokine AUC serum IL-1β, percent change vs vehicle ([1]; G2: 3 mg/kg iv, 2× wk): −61%
Cytokine AUC serum IL-12, percent change vs vehicle ([1]; G2: 3 mg/kg iv, 2× wk): −72%
Cytokine AUC serum TNFα, percent change vs vehicle ([1]; G2: 3 mg/kg iv, 2× wk): −79%
Cytokine AUC serum IL-1β, percent change vs vehicle ([1]; G3: 10 mg/kg po, 2× wk): −58%
Cytokine AUC serum IL-12, percent change vs vehicle ([1]; G3: 10 mg/kg po, 2× wk): −62%
Cytokine AUC serum TNFα, percent change vs vehicle ([1]; G3: 10 mg/kg po, 2× wk): −71%
ANA AUC Smith Ag, percent change vs vehicle ([2]; G1: 3 mg/kg iv, 1× wk): −96%
ANA AUC chromatin, percent change vs vehicle ([2]; G1: 3 mg/kg iv, 1× wk): −94%
ANA AUC dsDNA, percent change vs vehicle ([2]; G1: 3 mg/kg iv, 1× wk): −91%
ANA AUC Smith Ag, percent change vs vehicle ([2]; G2: 3 mg/kg iv, 2× wk): −96%
ANA AUC chromatin, percent change vs vehicle ([2]; G2: 3 mg/kg iv, 2× wk): −94%
ANA AUC dsDNA, percent change vs vehicle ([2]; G2: 3 mg/kg iv, 2× wk): −95%
ANA AUC Smith Ag, percent change vs vehicle ([2]; G3: 10 mg/kg po, 2× wk): −94%
ANA AUC chromatin, percent change vs vehicle ([2]; G3: 10 mg/kg po, 2× wk): −91%
ANA AUC dsDNA, percent change vs vehicle ([2]; G3: 10 mg/kg po, 2× wk): −37%
anti-Smith Ag IgG ANA level decrease vs vehicle at EOS ([2]; Group 1): 97%
anti-chromatin IgG level reduction vs vehicle ([2]; Group 1): 89%
anti-dsDNA IgG ANA decrease vs vehicle ([2]; Group 1 (iv)): 80%
anti-Smith Ag IgG ANA level decrease vs vehicle at EOS ([2]; Group 2): 100%
anti-chromatin IgG level reduction vs vehicle ([2]; Group 2): 98%
anti-dsDNA IgG ANA decrease vs vehicle ([2]; Group 2 (iv)): 84%
anti-Smith Ag IgG ANA level decrease vs vehicle at EOS ([2]; Group 3): 86%
anti-chromatin IgG level reduction vs vehicle ([2]; Group 3): 79%
animals remaining at the end of the study (day 310) ([3]; COMPOUND A treatment groups, vehicle 45%): 100%
EOS survival, percent live mice from original number ([3]; G1 3 mg/kg ip, 1× wk): 100%
survival increase relative to vehicle ([3]; G1: 3 mg/kg ip once per week): 55%
EOS survival, percent live mice from original number ([3]; G2 3 mg/kg ip, 2× wk): 91%
survival increase relative to vehicle ([3]; G2: 3 mg/kg ip twice weekly): 46%
mice still alive at day 56 ([3]; both treatment groups of the substance): 100%
Urine proteinuria AUC, percent change vs vehicle ([4]; G1 3 mg/kg ip, 1× wk): −61%
Urine proteinuria AUC, percent change vs vehicle ([4]; G2 3 mg/kg ip, 2× wk): −72%
proteinuria reduction compared to vehicle ([4]; Group 1: 3 mg/kg ip once per week): 61%
proteinuria reduction compared to vehicle ([4]; Group 2: 3 mg/kg ip twice weekly): 72%
Urine AUC leukocytes, percent change vs vehicle ([5]; G1: 3 mg/kg iv, 1× wk): −96%
Urine AUC leukocytes, percent change vs vehicle ([5]; G2: 3 mg/kg iv, 2× wk): −94%
Urine AUC leukocytes, percent change vs vehicle ([5]; G3: 10 mg/kg po, 2× wk): −94%
EOS plasma cells, percent change vs vehicle ([6]; G1: 3 mg/kg iv, 1× wk): −67%
EOS plasma cells, percent change vs vehicle ([6]; G2: 3 mg/kg iv, 2× wk): −67%
EOS plasma cells, percent change vs vehicle ([6]; G3: 10 mg/kg po, 2× wk): −67%
spleen plasma cells decrease vs vehicle ([6]; Groups 1-3 (each)): 67%
p, serum C3 complement levels vs G6 Bortezomib 0.3 mg/kg 2× wk ip ([7]; G1 3 mg/kg 1× wk ip): p < 0.01
p, serum C3 complement levels vs G7 CTX 50 mg/kg 1× wk ip ([7]; G1 3 mg/kg 1× wk ip): p < 0.001
p, serum C3 complement levels vs G9 Vehicle 2× wk po ([7]; G1 3 mg/kg 1× wk ip): p < 0.05
Serum C3 complement AUC, percent change vs vehicle ([7]; G1 3 mg/kg ip, 1× wk): 45%
p, serum C3 complement levels vs G7 CTX 50 mg/kg 1× wk ip ([7]; G2 3 mg/kg 2× wk ip): p < 0.05
Serum C3 complement AUC, percent change vs vehicle ([7]; G2 3 mg/kg ip, 2× wk): 32%
serum C3 increase above vehicle ([7]; once weekly): 45%
